Compound `OCC(S)CS` (configuration not stated) displayed a log10 vapour pressure (mmHg) of -2.3.

For the compound `FC(F)(F)c1cccc(C(c2ccccc2)(c2ccccc2)n2cncn2)c1`, the melting point (in general, the temperature, or range, at which the solid turns liquid) came out at 132 °C.

The values are drawn from the OPERA property sets (Mansouri et al. 2018).
